“Also recorded” adds a separate entry of the source.
Columns and labels:
[1] = system: elastase-induced emphysema; experiment: Hyaluronidase-elastase model, mean linear intercept measurement of air-space size; type: in vivo, Syrian hamsters
Description: To determine the effects of hyaluronidase on elastase-induced emphysema, Syrian hamsters received intratracheal instillments of bovine testicular hyaluronidase and, 24 hours later, porcine pancreatic elastase. Controls received: 1) saline followed by elastase, 2) elastase followed by hyaluronidase, and 3) saline followed by saline. Air-space enlargement was measured one week later, using the mean linear intercept method (8). Changes in lung elastin content were determined at 24 and 48 hours by quantifying elastin-specific desmosine and isodesmosine cross-links.
Female Syrian hamsters, weighing approximately 100 gms each, were anesthetized by intramuscular injection of ketamine hydrochloride (10 mg in 0.1 ml). The animals were then placed on a rodent surgical table (Harvard Bioscience, South Natick, Mass.) and restrained with elastic bands. The neck fur was shaved with a scalpel and a 2-cm vertical incision was made through the skin and subcutaneous fat. The underlying muscle was then cut to expose the trachea. A 26-gauge needle mounted on a 1-ml syringe was placed inside the tracheal lumen and 900 unite of highly purified bovine testicular hyaluronidase (Sigma Chemical Co., St. Louis, Mo.), dissolved in 0.3 ml normal saline solution, were delivered to the lungs in small increments. Twenty-four hours later, 20 units of porcine pancreatic elastase (Elastin Products, Pacific, Mo.), dissolved in 0.2 ml saline solution, were instilled by the same method. The incision was then closed with several sutures.

3H-elastin = settings: incubation with 3H-elastin; cited from earlier work
lung air-space = settings: hyaluronidase alone; cited from earlier work
[2] = system: elastase-induced emphysema; experiment: Hyaluronic acid-elastase model, mean linear intercept measurement of air-space size; type: in vivo, Syrian hamsters; settings: 1 week
Description: (§1) To test the possibility that addition of hyaluronic acid may inhibit air-space enlargement, Syrian hamsters were instilled with elastase intratracheally, then immediately given 1 mg of bovine tracheal hyaluronic acid by the same route. Controls received elastase followed by saline alone. Changes in air-space size were evaluated one week later, using the mean linear intercept method (8). To determine whether hyaluronic acid has elastase inhibitory capacity, it was incubated with pancreatic elastase in the presence of ^3 H-elastin. Controls contained elastase and ^3 H-elastin alone.
Following intratracheal administration of 20 units of pancreatic elastase (see above procedure), hamsters immediately received, by the same route, 1 mg of bovine tracheal hyaluronic acid (Sigma Chemical Co., St. Louis, Mo.), dissolved in 0.2 ml of saline solution.

lungs = settings: hamster, in vivo
Description: One week after completion of the enzyme instillments, the hamsters were sacrificed by intraperitoneal injection of chloral hydrate. Their lungs were then fixed in-situ by inserting a catheter into the tracheas and allowing 10% neutral-buffered formalin to inflate the tissues at a pressure of 20 cm H2 O. Two hours later, the catheter was removed and the trachea was tied off to minimize deflation. both the lungs and heart were removed from the chest as a single block and additionally fixed in 10% formalin for several days. The lungs were then dissected free of extrapulmonary structures, sectioned randomly, and entirely submitted for histological processing.

pancreatic elastase = experiment: Measurement of elastase inhibitory capacity of hyaluronic acid (release of radioactivity from 3H-elastin); type: biochemical, porcine; settings: 1, 10, 100 μg hyaluronic acid, 1 μg elastase, pH 8.0, 37° C., 22 hours, preincubated with elastase or 3H-elastin
Description: as §1
Various amounts of hyaluronic acid (1,10,100 μg) were incubated with pancreatic elastase (1 μg) and ^3 H-elastin in 0.2M Tris buffer, pH 8.0, at 37° C. for 22 hours (7,10). Hyaluronic acid was preincubated with either elastase or ^3 H-elastin for 10 minutes prior to the start of the assay. This was done to allow for the possible binding of one component to another. Following incubation, the samples were filtered, combined with scintillation fluid, and measured for radioactivity. The results were adjusted for nonspecific release of radioactivity and expressed as net counts per minute.

Q: What does the source list for hyaluronidase?
A: mean linear intercept value ([1]; elastase followed by hyaluronidase (reversed order), 1 week): 95.3 um; mean linear intercept value ([1]; hyaluronidase 900 units intratracheally 24 hours prior to elastase, 1 week): 128 um; effect of hyaluronidase on air-space enlargement ([1]; order of enzyme administration reversed (elastase then hyaluronidase)): abolished this effect; also recorded: extinguished; elastase-induced air-space enlargement ([1]; pre-treatment with hyaluronidase, then elastase, 1 week): significantly increased elastase-induced air-space enlargement; also recorded: markedly enhanced; elastase activity of the hyaluronidase preparation (3H-elastin): no elastase activity; air-space dilation (lung air-space): does not cause significant air-space dilation

Q: For “elastase: porcine pancreatic elastase (Elastin Products), used to induce emphysema”, which “mean linear intercept value” ([1]; saline followed 24 hours later by elastase 20 units (model control), 1 week) is on record?
A: 100 um

Q: And the “mean linear intercept (air-space size)” value ([2]; elastase followed immediately by saline (model control))?
A: 122 um

Q: What does the source list for hyaluronic acid?
A: histological changes of the lungs (lungs): No specific changes; mean linear intercept (air-space size) ([2]; 1 mg hyaluronic acid intratracheally immediately after 20 units elastase, control elastase then saline 122 um): 82 um; air-space enlargement ([2]; hyaluronic acid intratracheally immediately after elastase, vs elastase followed by saline): significantly reduced the amount of air-space enlargement; also recorded: marked decrease in air-space enlargement; also recorded: marked reduction in air-space enlargement; pancreatic elastase activity (release of radioactivity from 3H-elastin) (pancreatic elastase): no elastase inhibitory capacity; also recorded: did not reduce ^3 H-elastin breakdown, but instead caused a marked increase in the release of radioactivity; also recorded: does not prevent elastin from being degraded by elastase in-vitro; pancreatic elastase activity (release of radioactivity from 3H-elastin) (pancreatic elastase; listed as Hyaluronic acid): enhanced, rather than inhibited, pancreatic elastase activity

From patent US5633003A, “Use of intratracheally administered hyaluronic acid to ameliorate emphysema” (priority 1994, dated 1997)
